In patent publication US20250368666A1, “INDAZOLE COMPOUNDS” (TYRA BIOSCIENCES, INC., priority 2022, published 2025):
Structures can show the parent of a compound that is named as a salt. Where two headings read alike, the source gives them in different places.

Assays:
FGFR3 = target: T1, FGFR3 (Homo sapiens, UniProt P22607); assay: Kinase binding assay (kinase-tagged T7 phage, affinity beads, qPCR), Kd; conditions: read-out: FGFR3 (Kd nM)
T1 construct: made in house; host or cells: E. coli (BL21-derived), T7 phage
Procedure: (§1) Kinase-tagged T7 phage strains were prepared in an E. coli host derived from the BL21 strain. E. coli were grown to log-phase and infected with T7 phage and incubated with shaking at 32° C. until lysis. The lysates were centrifuged and filtered to remove cell debris. Streptavidin-coated magnetic beads were treated with biotinylated small molecule ligands for 30 minutes at room temperature to generate affinity resins for kinase assays. The liganded beads were blocked with excess biotin and washed with blocking buffer SeaBlock (Pierce), 1% BSA, 0.05% Tween 20, 1 mM DTT to remove unbound ligand and to reduce non-specific binding.
(§2) Test compounds were prepared as 111× stocks in 100% DMSO. Kds were determined using an 11-point 3-fold compound dilution series with three DMSO control points. […] The compounds were then diluted directly into the assays such that the final concentration of DMSO was 0.9%. All reactions performed in polypropylene 384-well plate. Each was a final volume of 0.02 ml. […] The kinase concentration in the eluates was measured by qPCR.
(§3) Binding constants were calculated with a standard dose-response curve using the Hill equation: […]
(§4) The Hill Slope was set to −1. Curves were fitted using a non-linear least square fit with the Levenberg-Marquardt algorithm.

FGFR1 = target: T2, FGFR1 (Homo sapiens, UniProt P11362); assay: as above; conditions: read-out: FGFR1 (Kd nM)
T2 construct: made in house; host or cells: E. coli (BL21-derived), T7 phage
Procedure: as §1, §2, §3, §4

[1] = kinase binding assay, 11-point 3-fold dilution series

T2 sequence (P11362 22-822): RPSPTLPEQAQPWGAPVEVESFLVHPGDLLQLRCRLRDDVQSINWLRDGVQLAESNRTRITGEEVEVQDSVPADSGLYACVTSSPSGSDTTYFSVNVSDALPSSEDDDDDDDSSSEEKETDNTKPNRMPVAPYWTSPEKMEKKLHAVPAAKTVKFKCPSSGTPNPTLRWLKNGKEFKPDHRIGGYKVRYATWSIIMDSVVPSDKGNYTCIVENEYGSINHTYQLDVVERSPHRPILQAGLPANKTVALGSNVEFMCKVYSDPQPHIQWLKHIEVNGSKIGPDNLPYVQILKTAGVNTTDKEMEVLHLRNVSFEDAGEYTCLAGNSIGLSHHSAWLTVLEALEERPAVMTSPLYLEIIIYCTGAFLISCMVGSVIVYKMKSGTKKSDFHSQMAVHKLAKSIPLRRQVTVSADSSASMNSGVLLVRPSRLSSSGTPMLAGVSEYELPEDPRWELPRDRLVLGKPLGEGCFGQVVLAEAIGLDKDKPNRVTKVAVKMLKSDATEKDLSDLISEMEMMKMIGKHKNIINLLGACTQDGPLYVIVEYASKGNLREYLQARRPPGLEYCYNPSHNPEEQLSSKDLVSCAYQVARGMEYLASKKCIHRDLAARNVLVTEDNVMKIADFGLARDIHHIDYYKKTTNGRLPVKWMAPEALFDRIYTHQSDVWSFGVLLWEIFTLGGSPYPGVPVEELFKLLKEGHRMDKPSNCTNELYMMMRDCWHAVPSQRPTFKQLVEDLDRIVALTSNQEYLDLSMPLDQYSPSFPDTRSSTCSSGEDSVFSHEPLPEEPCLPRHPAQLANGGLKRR
T1 sequence (P22607 23-806): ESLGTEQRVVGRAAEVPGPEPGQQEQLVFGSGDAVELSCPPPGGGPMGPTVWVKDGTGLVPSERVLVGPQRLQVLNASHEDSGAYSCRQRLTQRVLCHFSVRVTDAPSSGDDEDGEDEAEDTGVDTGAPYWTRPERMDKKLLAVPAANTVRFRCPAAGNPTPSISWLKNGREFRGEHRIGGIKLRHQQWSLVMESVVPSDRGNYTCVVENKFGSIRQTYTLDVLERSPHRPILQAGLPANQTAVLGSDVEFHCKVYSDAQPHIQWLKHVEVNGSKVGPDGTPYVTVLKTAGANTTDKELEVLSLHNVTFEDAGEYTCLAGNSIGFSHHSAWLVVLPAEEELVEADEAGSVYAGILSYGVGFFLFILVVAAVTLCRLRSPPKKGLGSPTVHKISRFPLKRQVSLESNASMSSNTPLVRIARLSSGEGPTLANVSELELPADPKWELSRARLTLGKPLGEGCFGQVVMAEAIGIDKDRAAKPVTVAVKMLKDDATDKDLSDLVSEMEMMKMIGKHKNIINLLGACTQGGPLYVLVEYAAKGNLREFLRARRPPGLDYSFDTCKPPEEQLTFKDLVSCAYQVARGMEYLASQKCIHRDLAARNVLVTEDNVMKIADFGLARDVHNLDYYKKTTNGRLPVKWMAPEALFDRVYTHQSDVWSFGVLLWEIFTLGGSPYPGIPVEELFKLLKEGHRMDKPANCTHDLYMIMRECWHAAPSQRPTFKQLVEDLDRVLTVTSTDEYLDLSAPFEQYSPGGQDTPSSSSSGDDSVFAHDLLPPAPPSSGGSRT

Kd (FGFR3) [nM]	Kd (FGFR1) [nM]	Kd (FGFR3; [1]) [nM]	Kd (FGFR1; [1]) [nM]	SMILES
1 to 50	1 to 50	–	–	COc1cc2[nH]nc(-c3ccc(N4CCC(C)(N)C4)nc3)c2cc1O[C@H](C)c1c(Cl)cncc1Cl (stereo in doubt) [Example 380, (R)-1-(5-(5-((R)-1-(3,5-dichloropyridin-4-yl)ethoxy)-6-methoxy-1H-indazol-3-yl)pyridin-2-yl)-3-methylpyrrolidin-3-amine]
–	–	1 to 50	1 to 50	C[C@@H](Oc1ccc2[nH]nc(-c3ccc(N4CCC(N)(c5ccnn5C)C4)nn3)c2c1)c1c(Cl)cncc1Cl (stereo in doubt) [Example 416, (R)-1-(6-(5-((R)-1-(3,5-dichloropyridin-4-yl)ethoxy)-1H-indazol-3-yl)pyridazin-3-yl)-3-(1-methyl-1H-pyrazol-5-yl)pyrrolidin-3-amine]
1 to 50	1 to 50	–	–	CCNC1(C)CN(c2ncc(-c3n[nH]c4ccc(O[C@H](C)c5c(Cl)cncc5Cl)cc34)cn2)C1 [Example 238, (R)-1-(5-(5-(1-(3,5-dichloropyridin-4-yl)ethoxy)-1H-indazol-3-yl)pyrimidin-2-yl)-N-ethyl-3-methylazetidin-3-amine]
1 to 50	1 to 50	–	–	C=CCNC1(C)CN(c2ccc(-c3n[nH]c4ccc(O[C@H](C)c5c(Cl)cncc5Cl)cc34)c(F)n2)C1 [Example 240, (R)-N-ally1-1-(5-(5-(1-(3,5-dichloropyridin-4-yl)ethoxy)-1H-indazol-3-yl)-6-fluoropyridin-2-yl)-3-methylazetidin-3-amine]
1 to 50	1 to 50	–	–	C[C@@H](Oc1ccc2[nH]nc(-c3cnc(N4CC(CC#N)(N(C)C)C4)c(F)c3)c2c1)c1c(Cl)cncc1Cl [Example 252, (R)-2-(1-(5-(5-(1-(3,5-dichloropyridin-4-yl)ethoxy)-1H-indazol-3-yl)-3-fluoropyridin-2-yl)-3-(dimethyl-amino)azeti-din-3-yl)acetonitrile]
1 to 50	50 to 300	–	–	CC(C)CNC1(CC#N)CN(c2ncc(-c3n[nH]c4ccc(O[C@H](C)c5c(Cl)cncc5Cl)cc34)cc2F)C1 [Example 253, (R)-2-(1-(5-(5-(1-(3,5-Dichloropyridin-4-yl)ethoxy)-1H-indazol-3-yl)-3-fluoropyridin-2-yl)-3-(iso-butylamino)azeti-din-3-yl)acetonitrile dihydrochloride]
1 to 50	50 to 300	–	–	Cc1ncc(Cl)c([C@@H](C)Oc2ccc3[nH]nc(-c4cnc(N5CC(CC#N)(NCC(C)C)C5)c(F)c4)c3c2)c1Cl [Example 254, (R)-2-(1-(5-(5-(1-(3,5-Dichloro-2-methylpyridin-4-yl)ethoxy)-1H-indazol-3-yl)-3-fluoropyridin-2-yl)-3-(iso-butylamino)azeti-din-3-yl)acetonitrile]
1 to 50	50 to 300	–	–	CC(C)N(C)C1(CC#N)CN(c2ncc(-c3n[nH]c4ccc(O[C@H](C)c5c(Cl)cncc5Cl)cc34)cc2F)C1 [Example 257, (R)-2-(1-(5-(5-(1-(3,5-dichloropyridin-4-yl)ethoxy)-1H-indazol-3-yl)-3-fluoropyridin-2-yl)-3-(isopropyl(methyl)a-mino)azetidin-3-yl)acetonitrile]
1 to 50	1 to 50	–	–	C[C@@H](Oc1ccc2[nH]nc(-c3cnc(N4CC(N)(C5CCOCC5)C4)c(F)c3)c2c1)c1c(Cl)cncc1Cl [Example 263, (R)-1-(5-(5-(1-(3,5-dichloropyridin-4-yl)ethoxy)-1H-indazol-3-yl)-3-fluoropyridin-2-yl)-3-(tetrahydro-2H-pyran-4-yl)azetidin-3-amine]
1 to 50	1 to 50	–	–	CCCC1(N)CN(c2ncc(-c3n[nH]c4ccc(O[C@H](C)c5c(Cl)cncc5Cl)cc34)cc2F)C1 [Example 265, (R)-1-(5-(5-(1-(3,5-dichloropyridin-4-yl)ethoxy)-1H-indazol-3-yl)-3-fluoropyridin-2-yl)-3-propylazetidin-3-amine]
1 to 50	1 to 50	–	–	C[C@@H](Oc1ccc2[nH]nc(-c3cnc(N4CC(C)(NCCN5CCCC5)C4)c(F)c3)c2c1)c1c(Cl)cncc1Cl [Example 268, (R)-1-(5-(5-(1-(3,5-dichloropyridin-4-yl)ethoxy)-1H-indazol-3-yl)-3-fluoropyridin-2-yl)-3-methyl-N-(2-(pyrrolidin-1-yl)ethyl)azetidin-3-amine]
1 to 50	1 to 50	–	–	C[C@@H](Oc1ccc2[nH]nc(-c3ccc(N4CC(N)(CC(C)(C)O)C4)nn3)c2c1)c1c(Cl)cncc1Cl [Example 275, (R)-1-(3-amino-1-(6-(5-(1-(3,5-dichloropyridin-4-yl)ethoxy)-1H-indazol-3-yl)pyridazin-3-yl)azetidin-3-yl)-2-methylpropan-2-ol]
1 to 50	1 to 50	–	–	C[C@@H](Oc1ccc2[nH]nc(-c3ccc(N4CC(N)(CC(C)(C)O)C4)nc3)c2c1)c1c(Cl)cncc1Cl [Example 278, (R)-1-(3-amino-1-(5-(5-(1-(3,5-dichloropyridin-4-yl)ethoxy)-1H-indazol-3-yl)pyridin-2-yl)azetidin-3-yl)-2-methylpropan-2-ol]
1 to 50	1 to 50	–	–	C[C@@H](Oc1ccc2[nH]nc(-c3ccc(N4CC(N)(CCO)C4)nc3)c2c1)c1c(Cl)cncc1Cl [Example 279, (R)-2-(3-amino-1-(5-(5-(1-(3,5-dichloropyridin-4-yl)ethoxy)-1H-indazol-3-yl)pyridin-2-yl)azetidin-3-yl)ethanol]
1 to 50	1 to 50	–	–	CCC(C)C1(N)CN(c2ncc(-c3n[nH]c4ccc(O[C@H](C)c5c(Cl)cncc5Cl)cc34)cc2F)C1 (stereo partly drawn) [Example 280, 1-[5-[5-[(1R)-1-(3,5-dichloro-4-pyridyl)ethoxy]-1H-indazol-3-yl]-3-fluoro-2-pyridyl]-3-sec-butyl-azetidin-3-amine]
1 to 50	1 to 50	–	–	C[C@@H](Oc1ccc2[nH]nc(-c3ccc(N4CC(C)(N)C4)nn3)c2c1)c1c(Cl)cncc1Cl [Example 286]
1 to 50	1 to 50	–	–	CC(C)OC(=O)C1(N)CN(c2ncc(-c3n[nH]c4ccc(O[C@H](C)c5c(Cl)cncc5Cl)cc34)cc2F)C1 [Example 287, (R)-isopropyl 3-amino-1-(5-(5-(1-(3,5-dichloropyridin-4-yl)ethoxy)-1H-indazol-3-yl)-3-fluoropyridin-2-yl)azetidine-3-carboxylate]
1 to 50	1 to 50	–	–	C[C@@H](Oc1ccc2[nH]nc(-c3cnc(N4CC(N)(CC5CCCO5)C4)c(F)c3)c2c1)c1c(Cl)cncc1Cl (stereo partly drawn) [Example 288, 1-(5-(5-((R)-1-(3,5-dichloropyridin-4-yl)ethoxy)-1H-indazol-3-yl)-3-fluoropyridin-2-yl)-3-((tetrahydrofuran-2-yl)methyl)azetidin-3-amine]
1 to 50	1 to 50	–	–	C[C@@H](Oc1ccc2[nH]nc(-c3ccc(N4CC(N)(CCF)C4)nn3)c2c1)c1c(Cl)cncc1Cl [Example 292, (R)-1-(6-(5-(1-(3,5-dichloropyridin-4-yl)ethoxy)-1H-indazol-3-yl)pyridazin-3-yl)-3-(2-fluoroethyl)azetidin-3-amine]
–	–	–	1 to 50	C[C@@H](Oc1ccc2[nH]nc(-c3cnc(N4CC[C@@](C)(N)C4)c(F)c3)c2c1)c1c(Cl)cncc1Cl [Example 408, (R)-1-(5-(5-((R)-1-(3,5-dichloropyridin-4-yl)ethoxy)-1H-indazol-3-yl)-3-fluoropyridin-2-yl)-3-methylpyrrolidin-3-amine]
